This note sets out measurements from PMC10175918 (Communications Biology, 2023).

Holding throughout (assay): TGFα-shedding assay-based GPCR screening with chimeric Gα subunit proteins
What all share (assay type): cell-based

Assay [1] addresses T1, 348 GPCRs (Homo sapiens, UniProt O14804).
T1 construct: expressed in transfected cells; host or cells: HEK293A
T1 sequence (O14804 1-337): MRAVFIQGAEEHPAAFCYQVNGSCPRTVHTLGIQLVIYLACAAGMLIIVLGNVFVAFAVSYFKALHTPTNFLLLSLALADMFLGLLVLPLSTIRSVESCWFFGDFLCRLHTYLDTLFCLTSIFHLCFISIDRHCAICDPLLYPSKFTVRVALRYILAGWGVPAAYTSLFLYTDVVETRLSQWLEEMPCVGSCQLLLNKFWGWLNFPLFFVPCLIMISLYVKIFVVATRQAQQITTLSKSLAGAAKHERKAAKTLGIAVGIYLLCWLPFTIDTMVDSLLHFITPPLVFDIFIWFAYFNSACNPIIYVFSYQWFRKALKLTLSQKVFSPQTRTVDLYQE
The note with it: 10µM, Favipiravir 100μM.

The target of assay [2] is T2, 348 GPCRs (Homo sapiens, UniProt O95977).
T2 sequence (O95977 1-384): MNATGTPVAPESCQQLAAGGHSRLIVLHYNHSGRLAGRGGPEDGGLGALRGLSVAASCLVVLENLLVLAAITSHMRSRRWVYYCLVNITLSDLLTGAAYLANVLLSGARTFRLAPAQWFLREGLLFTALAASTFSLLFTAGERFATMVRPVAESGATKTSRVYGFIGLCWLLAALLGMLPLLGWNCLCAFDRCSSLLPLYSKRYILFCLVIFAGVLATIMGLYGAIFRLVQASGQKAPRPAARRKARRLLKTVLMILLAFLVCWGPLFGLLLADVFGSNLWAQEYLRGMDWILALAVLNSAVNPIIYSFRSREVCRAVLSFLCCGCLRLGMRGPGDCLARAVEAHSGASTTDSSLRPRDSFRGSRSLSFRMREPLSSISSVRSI
The settings on record: 10µM, Favipiravir 100μM.

Assay [3] addresses T3, 348 GPCRs (Homo sapiens, UniProt P08588).
T3 construct: expressed in transfected cells; host or cells: HEK293A

The target of assay [4] is T4, 348 GPCRs (Homo sapiens, UniProt P47890).
T4 construct: expressed in transfected cells; host or cells: HEK293A
T4 sequence (P47890 1-313): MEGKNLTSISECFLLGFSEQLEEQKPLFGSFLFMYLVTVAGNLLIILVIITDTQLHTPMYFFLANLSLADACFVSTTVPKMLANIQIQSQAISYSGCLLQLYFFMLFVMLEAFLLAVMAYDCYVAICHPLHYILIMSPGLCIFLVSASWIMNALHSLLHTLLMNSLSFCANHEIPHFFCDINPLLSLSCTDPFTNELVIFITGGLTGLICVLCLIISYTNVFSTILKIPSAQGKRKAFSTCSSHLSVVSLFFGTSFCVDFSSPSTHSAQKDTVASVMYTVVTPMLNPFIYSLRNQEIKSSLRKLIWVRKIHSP
The note with it: 10µM, Favipiravir 100μM.

The target in assay [5] is T5, 348 GPCRs (Homo sapiens, UniProt P48960).
T5 construct: expressed in transfected cells; host or cells: HEK293A
T5 sequence (P48960 21-835): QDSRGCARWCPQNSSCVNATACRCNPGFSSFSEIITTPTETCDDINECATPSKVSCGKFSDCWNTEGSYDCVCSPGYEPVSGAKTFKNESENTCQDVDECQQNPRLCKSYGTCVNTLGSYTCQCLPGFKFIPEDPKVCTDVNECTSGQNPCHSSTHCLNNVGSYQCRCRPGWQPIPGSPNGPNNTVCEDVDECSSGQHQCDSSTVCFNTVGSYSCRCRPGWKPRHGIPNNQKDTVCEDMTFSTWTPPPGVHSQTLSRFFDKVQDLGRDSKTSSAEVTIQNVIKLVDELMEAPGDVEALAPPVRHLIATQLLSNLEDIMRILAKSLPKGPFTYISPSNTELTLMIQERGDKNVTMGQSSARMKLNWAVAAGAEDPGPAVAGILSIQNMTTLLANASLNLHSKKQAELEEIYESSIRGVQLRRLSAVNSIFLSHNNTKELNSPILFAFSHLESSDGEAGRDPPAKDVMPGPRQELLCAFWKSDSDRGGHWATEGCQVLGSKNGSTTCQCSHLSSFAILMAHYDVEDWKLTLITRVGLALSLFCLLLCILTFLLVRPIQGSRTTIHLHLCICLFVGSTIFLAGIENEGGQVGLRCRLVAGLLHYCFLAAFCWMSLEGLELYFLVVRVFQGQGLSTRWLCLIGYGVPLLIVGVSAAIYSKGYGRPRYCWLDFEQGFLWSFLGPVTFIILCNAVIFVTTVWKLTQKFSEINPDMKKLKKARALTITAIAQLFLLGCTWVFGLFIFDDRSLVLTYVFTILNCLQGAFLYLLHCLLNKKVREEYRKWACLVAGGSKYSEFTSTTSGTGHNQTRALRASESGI

Assay [6] addresses T6, 348 GPCRs (Homo sapiens, UniProt P59542).
T6 construct: expressed in transfected cells; host or cells: HEK293A
T6 sequence (P59542 1-299): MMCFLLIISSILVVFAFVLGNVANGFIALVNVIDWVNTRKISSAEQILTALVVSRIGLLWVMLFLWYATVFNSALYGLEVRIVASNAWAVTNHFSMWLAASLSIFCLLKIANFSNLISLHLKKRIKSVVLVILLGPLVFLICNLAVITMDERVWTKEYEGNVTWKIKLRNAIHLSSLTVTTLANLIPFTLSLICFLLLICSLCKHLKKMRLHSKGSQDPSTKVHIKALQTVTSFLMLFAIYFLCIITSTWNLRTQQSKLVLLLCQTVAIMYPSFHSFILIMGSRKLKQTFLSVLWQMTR
The settings on record: 10µM, Favipiravir 100μM.

Assay [7] deals with T7, 348 GPCRs (Homo sapiens, UniProt Q8N6U8).
T7 construct: expressed in transfected cells; host or cells: HEK293A
T7 sequence (Q8N6U8 whole entry): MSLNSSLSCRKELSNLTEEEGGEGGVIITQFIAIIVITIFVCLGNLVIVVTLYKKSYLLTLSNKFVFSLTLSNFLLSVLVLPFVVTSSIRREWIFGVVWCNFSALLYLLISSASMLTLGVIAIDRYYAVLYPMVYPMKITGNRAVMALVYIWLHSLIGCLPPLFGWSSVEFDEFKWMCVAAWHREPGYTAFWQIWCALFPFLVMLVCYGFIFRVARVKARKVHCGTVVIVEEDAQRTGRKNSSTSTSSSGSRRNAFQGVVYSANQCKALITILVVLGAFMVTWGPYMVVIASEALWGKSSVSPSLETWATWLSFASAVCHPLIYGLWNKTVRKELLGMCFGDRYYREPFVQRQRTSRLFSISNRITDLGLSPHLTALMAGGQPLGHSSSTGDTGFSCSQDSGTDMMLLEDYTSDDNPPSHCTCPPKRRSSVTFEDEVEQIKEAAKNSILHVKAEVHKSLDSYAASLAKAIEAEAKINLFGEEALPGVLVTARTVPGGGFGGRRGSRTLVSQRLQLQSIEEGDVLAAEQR
The note with it: 10µM, Favipiravir 100μM.

Assay [8] deals with T8, 348 GPCRs (Homo sapiens, UniProt Q9Y653).
T8 construct: expressed in transfected cells; host or cells: HEK293A
T8 sequence (Q9Y653 26-693): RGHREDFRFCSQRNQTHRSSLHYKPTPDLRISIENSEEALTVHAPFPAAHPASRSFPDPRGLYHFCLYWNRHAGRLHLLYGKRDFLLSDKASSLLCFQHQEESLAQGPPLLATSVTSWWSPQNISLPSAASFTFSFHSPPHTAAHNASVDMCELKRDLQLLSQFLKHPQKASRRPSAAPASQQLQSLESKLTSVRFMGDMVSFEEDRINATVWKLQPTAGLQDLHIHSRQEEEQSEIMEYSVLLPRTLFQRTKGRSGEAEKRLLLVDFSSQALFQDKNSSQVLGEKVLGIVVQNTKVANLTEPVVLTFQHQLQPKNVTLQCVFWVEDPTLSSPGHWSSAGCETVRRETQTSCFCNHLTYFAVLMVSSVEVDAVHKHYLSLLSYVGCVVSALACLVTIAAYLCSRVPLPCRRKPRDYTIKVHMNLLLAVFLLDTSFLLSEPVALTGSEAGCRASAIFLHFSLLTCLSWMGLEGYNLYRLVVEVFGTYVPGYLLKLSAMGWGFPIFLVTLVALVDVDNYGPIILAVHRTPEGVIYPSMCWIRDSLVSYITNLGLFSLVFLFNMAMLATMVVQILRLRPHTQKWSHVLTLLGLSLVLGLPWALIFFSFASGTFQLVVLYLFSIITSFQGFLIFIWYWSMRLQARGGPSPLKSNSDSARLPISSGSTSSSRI

[9] abbreviates: TAAR5 (trace amine associated receptor 5), read-out: % GPCR activation compared to TPA.
Where [10] appears, read: S1PR4 (sphingosine-1-phosphate receptor 4), read-out: % GPCR activation compared to TPA.
Where [11] appears, read: GPCR β1 (adrenoceptor beta 1), read-out: % GPCR activation compared to TPA.
Setting [12] is: OR1G1 (olfactory receptor, family 1, subfamily G, member 1), read-out: % GPCR activation compared to TPA.
Setting [13] is: GPCR CD97 (adhesion G protein-coupled receptor E5), read-out: % GPCR activation compared to TPA.
Where [14] appears, read: TAS2R19 (taste receptor, type 2, member 19), read-out: % GPCR activation compared to TPA.
Setting [15] is: GPR161 (G protein-coupled receptor 161), read-out: % GPCR activation compared to TPA.
Where [16] appears, read: GPCR GPR56 (G protein-coupled receptor 56), read-out: % GPCR activation compared to TPA.
[17] abbreviates: read-out: % GPCR activation compared to TPA, TAAR5 (trace amine associated receptor 5).
The mark [18] stands for this setting: read-out: % GPCR activation compared to TPA, S1PR4 (sphingosine-1-phosphate receptor 4).
The mark [19] stands for this setting: read-out: % GPCR activation compared to TPA, GPCR β1 (adrenoceptor beta 1).
[20] abbreviates: read-out: % GPCR activation compared to TPA, OR1G1 (olfactory receptor, family 1, subfamily G, member 1).
Setting [21] is: read-out: % GPCR activation compared to TPA, GPCR CD97 (adhesion G protein-coupled receptor E5).
Where [22] appears, read: read-out: % GPCR activation compared to TPA, TAS2R19 (taste receptor, type 2, member 19).
Setting [23] is: read-out: % GPCR activation compared to TPA, GPR161 (G protein-coupled receptor 161).
Where [24] appears, read: read-out: % GPCR activation compared to TPA, GPCR GPR56 (G protein-coupled receptor 56).

Read-outs that look alike come from different tables or passages of the source.

T3 sequence (P08588 whole entry): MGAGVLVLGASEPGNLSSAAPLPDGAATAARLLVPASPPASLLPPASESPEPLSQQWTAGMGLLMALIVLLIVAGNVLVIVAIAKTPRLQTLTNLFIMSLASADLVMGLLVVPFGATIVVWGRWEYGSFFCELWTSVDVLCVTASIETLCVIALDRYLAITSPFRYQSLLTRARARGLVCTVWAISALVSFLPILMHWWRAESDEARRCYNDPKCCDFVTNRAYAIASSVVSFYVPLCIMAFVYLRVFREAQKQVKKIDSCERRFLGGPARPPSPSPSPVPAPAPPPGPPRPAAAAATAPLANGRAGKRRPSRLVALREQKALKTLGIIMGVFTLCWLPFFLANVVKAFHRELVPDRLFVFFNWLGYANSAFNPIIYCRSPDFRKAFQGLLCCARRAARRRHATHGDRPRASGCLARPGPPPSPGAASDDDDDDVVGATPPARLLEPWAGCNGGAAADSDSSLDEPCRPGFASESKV

As for `CC(C)C(=O)OC[C@H]1O[C@@H](n2ccc(NO)nc2=O)[C@H](O)[C@@H]1O` [molnupiravir], the activation at 100 µM on 348 GPCRs [1] (setting [9]) is -1.58%; at 348 GPCRs [6] (setting [14]), -0.811%. Besides, the activation at 10 µM at 348 GPCRs [2] (setting [10]) is -2.08%; on 348 GPCRs [3] (setting [11]), 0.738%; on 348 GPCRs [4] (setting [12]) it was -3.31%; on 348 GPCRs [5] (setting [13]), -0.34%; on 348 GPCRs [7] (setting [15]) it was -3.46%; on 348 GPCRs [8] (setting [16]), -2.2%.
Regarding `CC(C)OC(=O)[C@H](C)N[P@](=O)(OC[C@H]1O[C@@H](n2ccc(=O)[nH]c2=O)[C@](C)(F)[C@@H]1O)Oc1ccccc1` [sofosbuvir], the activation at 100 µM was -2.96% on 348 GPCRs [1] (setting [17]) and -0.561% at 348 GPCRs [6] (setting [22]). In addition, the activation at 10 µM at 348 GPCRs [2] (setting [18]) was -2.24%; on 348 GPCRs [3] (setting [19]), 1.27%; at 348 GPCRs [4] (setting [20]) it was -2.98%; on 348 GPCRs [5] (setting [21]) it was -1.88%; at 348 GPCRs [7] (setting [23]), -5.59%; on 348 GPCRs [8] (setting [24]), 0.191%.
Turning to `N#C[C@@]1(c2ccc3c(N)ncnn23)O[C@H](CO)[C@@H](O)[C@H]1O` [GS441524], the results for the activation at 100 µM on 348 GPCRs [1] (setting [9]) and at 348 GPCRs [6] (setting [14]) were 0.608% and -0.28%, respectively. Besides, the activation at 10 µM at 348 GPCRs [2] (setting [10]) is -3.24%; on 348 GPCRs [3] (setting [11]), -0.381%; on 348 GPCRs [4] (setting [12]) it was -1.68%; at 348 GPCRs [5] (setting [13]) it was -3.9%; at 348 GPCRs [7] (setting [15]), -1.6%; on 348 GPCRs [8] (setting [16]) it was -3.73%.
On to `NC(=O)c1nc(F)cnc1O` [favipiravir, 6-fluoro-3-hydroxy-2-pyrazinecarboxamide], for which the activation at 100 µM at 348 GPCRs [1] (setting [9]) was -0.417%; at 348 GPCRs [3] (GPCR β1 (adrenoceptor beta 1), 100μM, read-out: % GPCR activation compared to TPA), -1.4%; on 348 GPCRs [5] (GPCR CD97 (adhesion G protein-coupled receptor E5), 100μM, read-out: % GPCR activation compared to TPA), -3.34%; on 348 GPCRs [6] (setting [14]), -1.32%; at 348 GPCRs [8] (GPCR GPR56 (G protein-coupled receptor 56), 100μM, read-out: % GPCR activation compared to TPA), -0.74%. The activation at 10 µM was -3.38% at 348 GPCRs [2] (setting [10]), 0.965% at 348 GPCRs [4] (setting [12]) and -0.46% at 348 GPCRs [7] (setting [15]).
`CCC(CC)COC(=O)[C@H](C)N[P@](=O)(OC[C@H]1O[C@@](C#N)(c2ccc3c(N)ncnn23)[C@H](O)[C@@H]1O)Oc1ccccc1` [remdesivir]: the figures for the activation at 100 µM on 348 GPCRs [1] (setting [17]) and at 348 GPCRs [6] (setting [22]) were 0.868% and 0.523%, respectively. For the same molecule, the activation at 10 µM is -2.69% at 348 GPCRs [2] (setting [18]); 1.07% at 348 GPCRs [3] (setting [19]); -1.69% on 348 GPCRs [4] (setting [20]); 1.2% on 348 GPCRs [5] (setting [21]); -2.6% on 348 GPCRs [7] (setting [23]); -0.797% at 348 GPCRs [8] (setting [24]).
